Here are results for 3 compounds from patent US12043602B2, “Fendiline derivatives” (The Board of Regents of the University of Texas System, priority 2019, dated 2024).

For one test, the system named is BxPC-3 tumors. Briefly: In vivo tumor growth assay (xenograft). On the set-up: species or system nu/nu mice. Conditions: 12.5 mg/kg intraperitoneally. As to the method:
FIG. 4. Inhibition of tumor growth in vivo by fendiline. Nu/nu mice implanted with BxPC-3 or MIAPaCa-2 tumors were treated with vehicle (DMSO) or fendiline (12.5 mg/kg) intraperitoneally and tumor sizes were measured with an external caliper every 3-4 days. Time and fendiline treatment affected MiaPaCa2 xenograft growth (2-way ANOVA, p=0.027).
Early passage BxPC-3 or MIAPaCa-2 cells were harvested, and 2-3X106 cells were implanted into the right flanks of nu/nu mice. The animals were randomized into control and treated groups (10 mice per group). Tumor volume (V) was measured with an external caliper every 3-4 days and it was calculated as V=0.52 (length×width2). Drug treatment was initiated 4 days after tumor implantation. Drugs were injected daily intraperitoneally (at doses indicated) for 5 days, with 2 days of no treatment in between. All treatments were continued until any of the subcutaneous tumors reached 1500 mm3 in volume or for 6 weeks (whichever was first), when all the animals were sacrificed and the tumors removed.

The next test deals with cleaved caspase 3 (CC3). The test is described as follows: Immunohistochemistry of tumor sections, cleaved caspase 3. On the set-up: species or system nu/nu mice. To be noted: mouse, in vivo. As to the method:
Immunohistochemistry. 4-5 μm sections were deparaffinized, rehydrated, and treated with 10 mM sodium citrate for heat induced antigen retrieval. After quenching endogenous peroxidase, and blocking with 2.5% normal goat serum (Vector Laboratories S-1012), sections were incubated overnight at 4° C. with primary antibody diluted in blocking solution as recommended by manufacturer (Cell Signaling). Controls were incubated with diluted normal rabbit IgG. After incubation with biotinylated secondary antibody diluted 1:250 in blocking serum for 45 min at rt, sections were incubated with VECTASTAIN ABC reagent for 30 min, and for development of the DAB chromogen the Quanto substrate was used. Slides were counter stained with Hematoxylin. Five fields per stained section per xenograft were photographed at 10X. CC3+ and pERK+ area and number of events per field were quantitated via automated image analysis (NIS Elements BR analysis ver. 4.13.04). Vessel number and lumen area per field used the same software with manual settings to trace vessel wall contours. Antibodies used are as follows: CC3: Cell Signaling #9661, use at 1:300. […]

The next test has as its target human ASM (SMPD1)-GFP (Homo sapiens (Human), UniProt P17405). The test is described as follows: ASM activity assay (Amplex Red SMase kit, lysates of treated cells). The test is classed as cell-based. To be noted: 5 μM compound for 48 h. As to the method: FIG. 6A-C. (A) Dose response curves quantifying the extent of KRASG12V and LactC2 mislocalization after 48 h treatment with compounds. Mislocalization was quantified using Manders coefficients as the fraction of mCherry-CAAX co-localizing with mGFP-KRASG12V or GFP-LactC2. (B) ASM activity in cell stably expressing GFP-tagged SMPD1 treated with DMSO or 5 μM compound for 48 h. (C) Representative western blots and quantitation of SMPD1-GFP levels in cells treated with 5 μM compounds for 48 h. (D) Representative confocal images of MDCK cells stably co-expressing mGFP-KRASG12V and mCherry-CAAX treated with 10 μM compound 6 or 1 μM of compounds 12f (NY0244), 12h (NY0331) or 22 (NY0335) for 48 h (-ASM), then incubated with recombinant ASM in the continued presence of drugs for a further 60 min (+ASM). Mislocalization was quantified using Manders coefficients as the fraction of mCherry-CAAX co-localizing with mGFP-KRASG12V.
ASM Activity Assay. The ASM activity assay was performed with Amplex Red SMase Assay Kit (A12220; Invitrogen; Carlsbad, CA) according to the manufacturer's instructions. […] The plate was further incubated in the dark in 37° C. for 60 min, and the fluorescence was measured using BioTek Synergy H1 microplate reader (excitation λ=540 nm, emission λ=590 nm). […]

The subject of test [1] is MAPK pathway inhibitors such as trametinib. Briefly: Combination with MAPK pathway inhibitors. To be noted: preliminary findings.

human ASM (SMPD1)-GFP, sequence (P17405 47-631): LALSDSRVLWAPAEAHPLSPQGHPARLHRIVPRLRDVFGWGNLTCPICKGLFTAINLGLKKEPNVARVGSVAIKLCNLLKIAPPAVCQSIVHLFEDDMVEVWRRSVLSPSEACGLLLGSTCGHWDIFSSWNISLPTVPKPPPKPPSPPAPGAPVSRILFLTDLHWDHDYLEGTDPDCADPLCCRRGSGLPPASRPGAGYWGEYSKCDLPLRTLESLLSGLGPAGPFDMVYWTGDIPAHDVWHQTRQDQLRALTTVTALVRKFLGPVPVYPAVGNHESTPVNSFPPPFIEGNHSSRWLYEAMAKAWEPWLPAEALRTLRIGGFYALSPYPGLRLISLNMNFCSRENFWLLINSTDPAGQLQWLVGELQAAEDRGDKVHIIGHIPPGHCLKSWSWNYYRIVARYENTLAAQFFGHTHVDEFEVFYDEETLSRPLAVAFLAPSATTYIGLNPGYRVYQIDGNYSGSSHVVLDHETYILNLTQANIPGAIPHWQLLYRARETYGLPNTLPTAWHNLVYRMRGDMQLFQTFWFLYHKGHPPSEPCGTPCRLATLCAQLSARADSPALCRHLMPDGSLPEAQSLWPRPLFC

In the case of `CC(NCCC(c1ccccc1)c1ccccc1)c1ccccc1` (centres unmarked) [Fendiline], the BxPC-3 xenograft growth result in the test on BxPC-3 tumors is listed as “No significant effects”.

For the compound `COc1ccc([C@@H](C)N(CC=C(c2ccccc2)c2ccccc2)CCN2CCCC2)cc1` [NY0331, (R)-N-(1-(4-methoxyphenyl)ethyl)-3,3-diphenyl-N-(2-(pyrrolidin-1-yl)ethyl)prop-2-en-1-amine], the “cleaved caspase 3 (CC3) in tumors” value in the test on cleaved caspase 3 (CC3) is reported as “increased”. In addition, the “inhibition of ASM” value at human ASM (SMPD1)-GFP is given as “most potent”. The “synergy with MAPK pathway inhibitors” value in test [1] is “synergizes”.

With `COc1ccc([C@@H](C)N(CC=C(c2ccccc2)c2ccccc2)CCCN2CCN(C)CC2)cc1` [NY0335, (R)-N-(1-(4-methoxyphenyl)ethyl)-N-(3-(4-methylpiperazin-1-yl)propyl)-3,3-diphenylprop-2-en-1-amine], the “cleaved caspase 3 (CC3) in tumors” value in the test on cleaved caspase 3 (CC3) was “increased”.
